This test concerns the target T1, recombinant human NK3 receptor (Homo sapiens, UniProt P29371).
T1 construct: expressed in transfected cells; host or cells: HEK293 cells, transient expression; membranes
T1 sequence (P29371 1-465): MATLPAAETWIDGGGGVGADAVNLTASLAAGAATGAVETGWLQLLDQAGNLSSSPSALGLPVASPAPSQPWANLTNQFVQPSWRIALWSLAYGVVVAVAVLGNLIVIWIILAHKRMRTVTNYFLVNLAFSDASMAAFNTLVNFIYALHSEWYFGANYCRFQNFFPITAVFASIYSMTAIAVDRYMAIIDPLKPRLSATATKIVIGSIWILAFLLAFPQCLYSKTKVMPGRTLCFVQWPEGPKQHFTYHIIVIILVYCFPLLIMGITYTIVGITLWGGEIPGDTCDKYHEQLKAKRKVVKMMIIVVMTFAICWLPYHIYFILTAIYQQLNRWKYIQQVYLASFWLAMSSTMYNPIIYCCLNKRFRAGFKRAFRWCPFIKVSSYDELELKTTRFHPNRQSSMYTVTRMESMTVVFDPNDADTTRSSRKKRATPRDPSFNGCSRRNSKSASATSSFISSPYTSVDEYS
The test can be described thus: [3H]SR142801 competition binding assay.

[1] abbreviates: hNK-3 receptor affinity, membranes from HEK293 cells transiently expressing recombinant human NK3 receptor, [3H]SR142801, Cheng-Prussoff, read-out: Data Ki.

Read-outs that look alike come from different tables or passages of the source.

For orientation: Ki means the dissociation constant of the complex between target and ligand, obtained from inhibition or displacement. Regarding `Cc1ccc(N2CCC(C(=O)N3C[C@@H](N(C)C(=O)O[C@H]4CC[C@H](C(F)(F)F)CC4)[C@H](c4ccc(Cl)c(Cl)c4)C3)CC2)nn1` [Example 160, {(3S,4R)-4-(3,4-Dichloro-phenyl)-1-[1-(6-methyl-pyridazin-3-yl)-piperidine-4-carbonyl]-pyrrolidin-3-yl}-methyl-carbamic acid 4-trifluoromethyl-cyclohexyl ester], the Ki stood at 0.5 nM.

Turning to `CN(C(=O)O[C@H]1CC[C@H](C(F)(F)F)CC1)[C@@H]1CN(C(=O)C2CCOCC2)C[C@H]1c1ccc(Cl)c(Cl)c1` [Example 161, [(3S,4R)-4-(3,4-Dichloro-phenyl)-1-(tetrahydro-pyran-4-carbonyl)-pyrrolidin-3-yl]-methyl-carbamic acid 4-trifluoromethyl-cyclohexyl ester], the Ki came out at 7.4 nM.

Turning to `CN(C(=O)OCC(F)(F)F)[C@@H]1CN(C(=O)C2CCN(C(=O)C3(C)CC3)CC2)C[C@H]1c1ccc(Cl)cc1` [Example 164, {(3S,4R)-4-(4-Chloro-phenyl)-1-[1-(1-methyl-cyclopropanecarbonyl)-piperidine-4-carbonyl]-pyrrolidin-3-yl}-methyl-carbamic acid 2,2,2-trifluoro ethyl ester], the Ki under setting [1] worked out at 81.4 nM.

As to `CC(OC(=O)N(C)[C@@H]1CN(C(=O)C2CCN(c3ccc(C#N)cn3)CC2)C[C@H]1c1ccc(Cl)cc1)C(F)(F)F` (stereo partly drawn) [Example 166, [(3S,4R)-4-(4-Chloro-phenyl)-1-(5′-cyano-3,4,5,6-tetrahydro-2H-[1,2′]bipyridinyl-4-carbonyl)-pyrrolidin-3-yl]-methyl-carbamic acid 2,2,2-trifluoro-1-methyl-ethyl ester], under setting [1], the Ki is 36.4 nM.

With `Cc1ccnc(N2CCC(C(=O)N3C[C@@H](N(C)C(=O)Oc4ccc(F)cc4)[C@H](c4ccc(Cl)cc4)C3)CC2)n1` [Example 167, {(3S,4R)-4-(4-Chloro-phenyl)-1-[1-(4-methyl-pyrimidin-2-yl)-piperidine-4-carbonyl]-pyrrolidin-3-yl}-methyl-carbamic acid 4-fluoro-phenyl ester], the Ki was 4.9 nM.

Take `CN(C(=O)Oc1ccc(F)cc1)[C@@H]1CN(C(=O)C2CCNC2)C[C@H]1c1ccc(Cl)cc1` (stereo partly drawn) [Example 168, [(3S,4R)-4-(4-Chloro-phenyl)-1-(pyrrolidine-3-carbonyl)-pyrrolidin-3-yl]-methyl-carbamic acid 4-fluoro-phenyl ester]: the Ki was 98.4 nM.

For `CN(C(=O)Oc1ccc(F)cc1)[C@@H]1CN(C(=O)C2CCN(c3ncc(F)cn3)CC2)C[C@H]1c1ccc(Cl)cc1` [Example 169, {(3S,4R)-4-(4-Chloro-phenyl)-1-[1-(5-fluoro-pyrimidin-2-yl)-piperidine-4-carbonyl]-pyrrolidin-3-yl}-methyl-carbamic acid 4-fluoro-phenyl ester], the Ki is 4.1 nM.

In the case of `CCC(=O)N1CCC(C(=O)N2C[C@@H](N(C)C(=O)Oc3ccc(F)cc3)[C@H](c3ccc(Cl)cc3)C2)C1` (stereo partly drawn) [Example 170, [(3S,4R)-4-(4-Chloro-phenyl)-1-(1-propionyl-pyrrolidine-3-carbonyl)-pyrrolidin-3-yl]-methyl-carbamic acid 4-fluoro-phenyl ester], the Ki came out at 8.3 nM.

Turning to `CN(C(=O)Oc1ccc(F)cc1)[C@@H]1CN(C(=O)C2CCN(C(=O)C3CC3)C2)C[C@H]1c1ccc(Cl)cc1` (stereo partly drawn) [Example 171, [(3S,4R)-4-(4-Chloro-phenyl)-1-(1-cyclopropanecarbonyl-pyrrolidine-3-carbonyl)-pyrrolidin-3-yl]-methyl-carbamic acid 4-fluoro-phenyl ester], the Ki was found to be 9.5 nM.

Regarding `COCC(=O)N1CCC(C(=O)N2C[C@@H](N(C)C(=O)Oc3ccc(F)cc3)[C@H](c3ccc(Cl)cc3)C2)C1` (stereo partly drawn) [Example 172, {(3S,4R)-4-(4-Chloro-phenyl)-1-[1-(2-methoxy-acetyl)-pyrrolidine-3-carbonyl]-pyrrolidin-3-yl}-methyl-carbamic acid 4-fluoro-phenyl ester], the Ki was found to be 4.1 nM.

With `CN(C(=O)OC1CCC1)[C@@H]1CN(C(=O)C2CCN(c3ccc(C#N)cn3)CC2)C[C@H]1c1ccc(Cl)cc1` [Example 173, [(3S,4R)-4-(4-Chloro-phenyl)-1-(5′-cyano-3,4,5,6-tetrahydro-2H-[1,2′]bipyridinyl-4-carbonyl)-pyrrolidin-3-yl]-methyl-carbamic acid cyclobutyl ester], the Ki under setting [1] stood at 47 nM.

For `CN(C(=O)OC1CC(F)(F)C1(F)F)[C@@H]1CN(C(=O)C2CCN(C(=O)C3(C)CC3)CC2)C[C@H]1c1ccc(Cl)cc1` (stereo partly drawn) [Example 175, {(3S,4R)-4-(4-Chloro-phenyl)-1-[1-(1-methyl-cyclopropanecarbonyl)-piperidine-4-carbonyl]-pyrrolidin-3-yl}-methyl-carbamic acid 2,2,3,3-tetrafluorocyclobutyl ester], the Ki was 36 nM.

`CN(C(=O)OC1CC(F)(F)C1(F)F)[C@@H]1CN(C(=O)C2CCN(c3ccc(C#N)cn3)CC2)C[C@H]1c1ccc(Cl)cc1` (stereo partly drawn) [Example 176, [(3S,4R)-4-(4-Chloro-phenyl)-1-(5′-cyano-3,4,5,6-tetrahydro-2H-[1,2′]bipyridinyl-4-carbonyl)-pyrrolidin-3-yl]-methyl-carbamic acid 2,2,3,3-tetrafluorocyclobutyl ester]: the Ki stood at 4.6 nM.

In the case of `CC(CC(F)(F)F)OC(=O)N(C)[C@@H]1CN(C(=O)C2CCN(c3ccc(C#N)cn3)CC2)C[C@H]1c1ccc(Cl)cc1` (stereo partly drawn) [Example 177, [(3S,4R)-4-(4-Chloro-phenyl)-1-(5′-cyano-3,4,5,6-tetrahydro-2H-[1,2′]bipyridinyl-4-carbonyl)-pyrrolidin-3-yl]-methyl-carbamic acid 3,3,3-trifluoro-1-methyl-propyl ester], the Ki stood at 18.9 nM.

With `CN(C(=O)Oc1ccc(F)cc1)[C@@H]1CN(C(=O)C2CCN(C3CCOCC3)C2)C[C@H]1c1ccc(Cl)cc1` (stereo partly drawn) [Example 179, {(3S,4R)-4-(4-Chloro-phenyl)-1-[1-(tetrahydro-pyran-4-yl)-pyrrolidine-3-carbonyl]-pyrrolidin-3-yl}-methyl-carbamic acid 4-fluoro-phenyl ester], the inhibition constant Ki was 56.6 nM.

Consider `CN(C(=O)Oc1ccc(F)cc1)[C@@H]1CN(C(=O)C2CCN(c3ccc(S(C)(=O)=O)cn3)CC2)C[C@H]1c1ccc(Cl)cc1` [Example 180, [(3S,4R)-4-(4-Chloro-phenyl)-1-(5′-methanesulfonyl-3,4,5,6-tetrahydro-2H-[1,2′]bipyridinyl-4-carbonyl)-pyrrolidin-3-yl]-methyl-carbamic acid 4-fluoro-phenyl ester], for which the Ki turned out to be 0.7 nM.

Turning to `CN(C(=O)Oc1ccc(F)cc1)[C@@H]1CN(C(=O)C2CCN(c3ccc(C(F)(F)F)cn3)CC2)C[C@H]1c1ccc(Cl)cc1` [Example 181, [(3S,4R)-4-(4-Chloro-phenyl)-1-(5′-trifluoromethyl-3,4,5,6-tetrahydro-2H-[1,2′]bipyridinyl-4-carbonyl)-pyrrolidin-3-yl]-methyl-carbamic acid 4-fluoro-phenyl ester], the Ki was 2.8 nM.

On to `CC(=O)c1ccc(N2CCC(C(=O)N3C[C@@H](N(C)C(=O)Oc4ccc(F)cc4)[C@H](c4ccc(Cl)cc4)C3)CC2)nc1` [Example 182, [(3S,4R)-1-(5′-Acetyl-3,4,5,6-tetrahydro-2H-[1,2′]bipyridinyl-4-carbonyl)-4-(4-chloro-phenyl)-pyrrolidin-3-yl]-methyl-carbamic acid 4-fluoro-phenyl ester], for which the Ki is 2 nM.

In the case of `CN(C(=O)Oc1ccc(F)cc1)[C@@H]1CN(C(=O)C2CCN(c3ncccn3)CC2)C[C@H]1c1ccc(Cl)cc1` [Example 183, [(3S,4R)-4-(4-Chloro-phenyl)-1-(1-pyrimidin-2-yl-piperidine-4-carbonyl)-pyrrolidin-3-yl]-methyl-carbamic acid 4-fluoro-phenyl ester], the Ki is 16 nM.

Regarding `CN(C(=O)Oc1ccc(F)cc1)[C@@H]1CN(C(=O)C2CCN(c3ncc(Cl)cn3)CC2)C[C@H]1c1ccc(Cl)cc1` [Example 184, {(3S,4R)-4-(4-Chloro-phenyl)-1-[1-(5-chloro-pyrimidin-2-yl)-piperidine-4-carbonyl]-pyrrolidin-3-yl}-methyl-carbamic acid 4-fluoro-phenyl ester], the Ki turned out to be 6.7 nM.

`CN(C(=O)Oc1ccc(F)cc1)[C@@H]1CN(C(=O)C2CCN(c3cc(C#N)ccn3)CC2)C[C@H]1c1ccc(Cl)cc1` [Example 185, [(3S,4R)-4-(4-Chloro-phenyl)-1-(4′-cyano-3,4,5,6-tetrahydro-2H-[1,2′]bipyridinyl-4-carbonyl)-pyrrolidin-3-yl]-methyl-carbamic acid 4-fluoro-phenyl ester]: the Ki was found to be 3 nM.

Turning to `CN(C(=O)Oc1ccc(F)cc1)[C@@H]1CN(C(=O)C2CCN(c3ncccc3C#N)CC2)C[C@H]1c1ccc(Cl)cc1` [Example 186, [(3S,4R)-4-(4-Chloro-phenyl)-1-(3′-cyano-3,4,5,6-tetrahydro-2H-[1,2′]bipyridinyl-4-carbonyl)-pyrrolidin-3-yl]-methyl-carbamic acid 4-fluoro-phenyl ester], the Ki amounted to 6 nM.

Turning to `CN(C(=O)Oc1ccc(F)cc1)[C@@H]1CN(C(=O)C2CCN(c3cncc(C#N)n3)CC2)C[C@H]1c1ccc(Cl)cc1` [Example 187, {(3S,4R)-4-(4-Chloro-phenyl)-1-[1-(6-cyano-pyrazin-2-yl)-piperidine-4-carbonyl]-pyrrolidin-3-yl}-methyl-carbamic acid 4-fluoro-phenyl ester], the Ki turned out to be 2.6 nM.

These data come from patent publication US9226916B2, “Pyrrolidine derivatives” (HOFFMANN-LA ROCHE INC., priority 2009, dated 2016).
